Measurements: US20030005484A1, “Microbiocidal and pesticidal aromatic aldehydes” (ProGuard, Inc., priority 1994, published 2003)
Values joined by “and” are separate entries in the source; they are usually repeats but may differ in a detail not shown here. Identical values can stand only once.

How the values were obtained:
[1] = tested on: phylloxera-biotype A; assay: greenhouse Merlot vines infested with phylloxera, leaf spray, disease rating of roots; type: in vivo, Daktulosphaira vitifoliae; conditions: Experiment 2, 200 ppm Malathion leaf treatment
Description: For greenhouse tests, one year old potted V. vinifera cultivar merlot plants were used that had been obtained from Foundation Plant Material Service, University of California, Davis. The plants were potted in 10 cm diameter pots and were infested with phylloxera 5 weeks prior to treatment. At the time of spraying with a treatment solution, plant pots were placed in a plastic bag so that chemical runoff from the leaf sprays would not drip into the soil. The plants were sprayed to runoff with a household 1 liter-capacity plastic spray bottle. Plants were allowed to air dry outside and then replaced in the greenhouse. At intervals thereafter, the roots were separated from the potting mix and total phylloxera population estimated.

[2] = tested on: black bean aphid, Tetranychus urticae; assay: aphid Petri dish bioassay; conditions: malathion 250 ppm, positive control; three hours contact
Description: (§1) Activity of cinnamic aldehyde and/or coniferyl aldehyde against black bean aphid, Tetranychus urticae, and silverleaf white fly, Bemisia argentifolii was determined as follows:
(§2) Petri dishes (60 mm) were treated with cinnamic aldehyde at 10-25,000 ppm in 2% Tween 80 and 6% NaHCO3 dissolved in water, and the dishes allowed to air dry. Twenty adult aphids (Tetranychus urticae) were put in each dish, (replicate 10 times). The mortality after three hours in contact with a treated plate was compared to that of aphids in petri dishes treated only with diluent. Malathion (250 ppm) was used as a positive control.

[3] = tested on: grape phylloxera; assay: grape phylloxera adult and nymphal mortality, root dip; type: in vivo, Daktulosphaira vitifoliae; conditions: Daktulosphaira vitifoliae, 120 h; positive control 250 ppm malathion in water; root dip; 5 days; read-out: mortality of adults and nymphs
Description: Approximately twenty four eggs of phylloxera were allowed to develop for up to 30 days on standard excised grape roots. At around 30 days, some of the insects were nymphs while others were adults. New eggs were removed during the process. Insect infected roots were submerged into a test formula for 6 seconds then set aside to dry in the air. The percentage of live insects, as defined by growth, oviposition or limb movement, was determined after 5 days. An insect was considered dead if it abandoned its feed site.
In an initial test, doses of 20,000 ppm cinnamic aldehyde in water (i.e., 2% cinnamic aldehyde) with various additives were evaluated. Cinnamic aldehyde without any additives produced 83.3% mortality. With-1% Tween 80 added, 91.7% mortality was seen. With 6% NaHCO3 added to a solution of 2% cinnamic aldehyde, 91.7% mortality was seen. With 1% Tween 80 and 6% NaHCO3 added to a solution of 2% cinnamic aldehyde, 100% mortality was seen. Water with no additives produced no mortality, while a positive control solution of 250 ppm malathion in water gave 100% mortality.
For nymph and adult tests, eggs were placed on excised root pieces similar to those used for rearing purposes and these were sealed in Petri dishes and held at 24° C. for 18-25 days to allow insects to hatch, initiate feeding sites and develop. At about this time about half the population was in the adult stage. Prior to testing, the population on each root was determined as well as the developmental stage of each insect. Eggs were removed. These root pieces were then dipped for 5 sec into test solutions and allowed to air dry before they were returned to Petri dishes, sealed and placed back in the temperature chamber at 24° C. Mortality was determined after 5 days. Insects were considered dead if they appeared black or desiccated and if they had not developed since the pre-treatment reading and had laid no or few new eggs.

[4] = tested on: silverleaf white fly, Bemisia argentifolii; assay: silver leaf white fly Petri dish bioassay; conditions: for Silver Leaf White Fly Mortality (Percent): no aldehyde: T80 (10 g), NaHCO3, T80(2%) + NaHCO3 (6%) or Malathion (250 ppm) alone
Description: as §1
as §2, with “and” for “and the dishes”, “silver leaf white fly” for “aphids (Tetranychus urticae)”, “plate,” for “plate”, “silver leaf white fly” for “aphids”, “at 250 ppm” for “(250 ppm)”

[5] = tested on: grape phylloxera eggs; assay: whole plant or invertebrate; conditions: for nymphs that died in the shell (DIS): controls: Carbofuran 10 ppm, malathion 250 ppm, 7 days; for approximate egg hatch LD 50: egg tests with CNMA analogs
Description: Mixed age groups of 60 grape phylloxera eggs were established on filter paper (Whatman #1, 5.5 cm circles) in 50×9 mm sealed plastic petri dishes treated with 100 μl of solution. A selected concentration of a test formulation of 400 μl was added to the filter disk and the dish closed with the petri dish cover and placed in a plastic container box. After 6 hours, the box was placed in an environmental chamber at 24° C. in the dark. The eggs were placed in groups of 10. After one week, the percentage of hatch is determined. In an initial test, doses from 0.1 to 25,000 ppm cinnamic aldehyde in 6% NaHCO3 and 2% Tween 80 were evaluated with a single group of eggs at each dosage. Three replicates of the experiment were performed. […] LD50 and LD95 were determined by probit analysis.
Grape phylloxera eggs were treated with cinnamaldehyde (CNMA) in a 6% NaHCO3, 2% Tween-80 formulation in a laboratory bioassay. Mortality of the eggs was indicated by failure of the egg shell to split. […] Leaves of one-year-old greenhouse Vitis vinifera cultivar Merlot vines heavily infested with grape phylloxera were sprayed to run-off with a CNMA treatment using the same formulation. […] Roots taken from plants 1, 2 and 5 weeks after CNMA or other treatments were placed in Petri dish bioassays and infested with untreated phylloxera eggs.
Eggs of various age classes were placed on Whatman #1 filter paper moistened with enough treatment solution to form a meniscus about halfway up the sides of the eggs. The pieces of filter paper with eggs were maintained in sealed plastic Petri dishes at […] until they were 7 days old and then hatched individuals were counted. Hatch was considered successful if the […]

[6] = tested on: powdery mildew; assay: powdery mildew on roses, disease rating / MPDC after foliar spray; type: in vivo, Sphaerotheca pannosa; conditions: for Mean % Disease Control, rose powdery mildew: no aldehyde: additive alone (T80 10 g, NaHCO3 80 g) or Benomyl per manufacturer instructions, four days
Description: Each formulation is evaluated for its effect on specific pests and/or plant host using any of the compounds of formula (1) as well as other components of the formulation such as Tween 80 and/or sodium bicarbonate, with the combination and effective amount of each component adapted for a particular application to minimize toxicity while maintaining or increasing the antipathogenic effect of the formulation. The effective amount of each component may be determined by systematically varying the amount of that component in a test formulation, treating a plant of interest with the test formulation, and monitoring the level of pest infestation compared to an untreated control plant. An effective amount of a test component is identified as the amount that controls the growth of the pathogen on the plant host, thus reducing the disease rating of the plant. The mean percentage disease […] (MPDC) can be calculated for each particular application. MPDC is defined by the formula: [formula] Eight cultivars of rose were tested to investigate the effect of a cinnamic aldehyde/NaHCO3 formulation on rust and spores. The cultivars used included Moss unnamed (Moss), […], Rosette Delize (Hybrid Tea), Rosa Rugosa Rubra (Rugosa), Abel Morrison (Hybrid perpetual), John Laing, Betty Prior, and Rose de Roi. […] The Hybrid Tea and Hybrid perpetual were rated 3 and the Rugosa was rated 1. […] Control plants received no treatment. […] Moreover, the treatment appeared to have induced systemic resistance. […] Plants were an average of 0.86 m apart. […] Controls were untreated plants. […] Weekly reviews were made of the various plants. […] of infected rose in dedicated experimental rose gardens were used. Four Mrs. John Laing (Hybrid perpetual) and two Marchionese of Londonderry (Hybrid perpetual) rose plants were treated with one of two formulations of coniferyl aldehyde. […] The first two Mrs. […] Mrs. […] Both Marchionese of Londonderry plants (P5 and P6) were rated 5 for powdery mildew and rust after Paulus and Nelson (supra). Two treatment formulae were used for this trial. […] Control plants were sprayed with water alone. The change in the rating from pre-treatment to post-treatment was calculated as the mean percentage of disease control (MPDC) as described herein. A three treatment experiment with cinnamic aldehyde formula, coniferyl aldehyde formula and combined cinnamic and coniferyl aldehyde formula was carried out on field grown roses known to be susceptible to powdery mildew. The plants were blocked by variety before fungicide treatments and were randomized as to the plants. Two varieties were used in each of the three experiments described below. […] In experiment 3 Comte de Chambord (Portland) and Madame Pierre Oger (Bourbon) were used. In Experiment 1, the effect of cinnamic aldehyde alone and in combination with Tween 80 and/or NaHCO3 component was evaluated in experiment 2 the effect of coniferyl aldehyde alone and in combination with Tween 80 and/or NaHCO3 was evaluated and in experiment 3 a combination of cinnamic aldehyde and coniferyl aldehyde with Tween 80 and/or NaHCo3 was evaluated. […] See Table 3 for the treatment protocol; formula 1 was used for these experiments. […] Plants were evaluated using the Paulus/Nelson scale just prior to and four days after treatment. […] Moreover, cinnamic aldehyde, coniferyl aldehyde, Tween 80 and NaHCO3 are used in the food industry and there is likely to be little toxicological risk to the consumer or handler from any horticultural or food crop sprayed in this way. Similarly, as these chemicals leave no toxic residue, there is little chance of any detrimental effect on the wider environment, and their use is likely to be compatible with current biological control methods such as beneficial insects and/or microorganisms.

[7] = tested on: Fusarium subglutinans f. sp. pini; assay: radial growth on amended potato dextrose agar; type: cell-based; conditions: controls: Saponin alone, 5 ppm Benomyl, Glutaraldehyde 2%; five days at 18° C
Description: A double-blind bioassay was undertaken using cinnamic aldehyde in various concentrations and formulations. The bioassay was based on inhibition of radial growth of Fusarium subglutinans f. sp. pini. Eight ml of formulation (concentration unknown) was pipetted into 200 ml of molten 2% potato dextrose agar (PDA) and the mixture was dispersed into five plastic petri dishes (25 ml dish). Each of four plates was inoculated at the center with an agar plug transferred from a growing PDA culture of Fusarium subglutinans f. sp. pini (isolate SL-1, UCB), while the fifth plate was left noninoculated as a control. These steps were repeated for each formulation of the cinnamic aldehyde. As a positive control, four PDA plates amended with 5 ppm benomyl were inoculated. as described; the negative control was four unamended PDA plates that were inoculated with F. subglutinans. All inoculated and non-inoculated plates were incubated at 18° C. for five days, after which colony diameters were measured.

[8] = tested on: root-knot nematode, Meloidogyne javanica; type: in vivo; conditions: controls: saponin alone (1:60 dilution of 10 brix concentrate; compared with 100% mortality), Ethanol (95%)
Description: In a double blind study, concentrations of the subject aldehyde compounds were tested for activity against root-knot nematode, Meloidogyne javanica. Nematodes were put in direct contact with the chemical and at 24 hour intervals, mortality was assessed both visually and by probing. Meloidogyne javanica were produced using hydroponics. The nematodes were harvested and used within 24 hours.
Approximately 100 nematodes in 0.07 mls of water were pipetted into a syracuse dish (Fisher) and 1 ml of test formulation was immediately pipetted into each dish. The dishes were then placed into plastic bags to retain moisture and prevent evaporation. Four syracuse dishes were used for each solution test formulation. […] Moving nematodes were counted as living.

SMILES: CCOC(=O)CC(SP(=S)(OC)OC)C(=O)OCC (stereo not shown) [malathion, reference compound]
- Average disease rating (0-4) ([1]; 1 day post treatment): 4 (3)
- Average disease rating (0-4) ([1]; 2 days post treatment): 2.3(3)
- Average disease rating (0-4) ([1]; 7 days post treatment): 0(2)
- aphids killed [2]: 100%
- mortality at 250 ppm [3]: 100%
- silver leaf white fly killed ([4]; malathion 250 ppm, positive control, three hours contact): 100%
- nymphs that died in the shell (DIS) [5]: 100%

SMILES: O=C([O-])O.[Na+] [NaHCO3]
- Mean % Disease Control, rose powdery mildew [6]: 44%
- Silver Leaf White Fly Mortality (Percent) [4]: 22.9%

SMILES: OCC=Cc1ccccc1 [Cinnamyl alcohol]
- approximate egg hatch LD 50 [5]: > 320 ppm and < 560 ppm

SMILES: CCCCCCCC/C=C\CCCCCCCC(=O)OCCOCC(OCCO)C1OCC(OCCO)C1OCCO (stereo not shown) [T80, Tween 80]
- Mean % Disease Control, rose powdery mildew [6]: 0%
- Silver Leaf White Fly Mortality (Percent) [4]: 14.5%

SMILES: CCCCNC(=O)n1c(NC(=O)OC)nc2ccccc21 [Benomyl, reference compound]
- Colony diameter (cm) [7]: 0.000 cm and 0 cm
- Mean % Disease Control, rose powdery mildew [6]: 79%
- Mean disease control ([6]; sprayed roses, parallel experiments): approximately 80%

SMILES: COC(=O)C=Cc1ccccc1 [Cinnamyl acid methyl ester]
- approximate egg hatch LD 50 [5]: > 320 ppm and < 560 ppm

SMILES: CNC(=O)Oc1cccc2c1OC(C)(C)C2 [Carbofuran, reference compound]
- nymphs that died in the shell (DIS) [5]: 100%

SMILES: CCO [Ethanol, reference compound]
- mortality at 24 hours [8]: killed all nematodes

SMILES: O=CCCCC=O [Glutaraldehyde, reference compound]
- Colony diameter (cm) [7]: 3.663 cm and 3.66 cm
